Experimental data: ChEMBL document CHEMBL5465560, “Selectivity Literature for EUbOPEN Chemogenomic Library” (2024)

Experiments:
[1] = target: Protein kinase C delta type (Homo sapiens) (UniProt Q05655); test: Selectivity interaction (KinomeScan (DiscoverX)) EUB0000092b PRKCD; settings: at 10 µM
[2] = target: T1, Serine/threonine-protein kinase TBK1 (Homo sapiens) (UniProt Q9UHD2); test: Selectivity interaction (KinomeScan (DiscoverX)) EUB0000655a TBK1; settings: at 10 µM
T1 sequence (whole entry): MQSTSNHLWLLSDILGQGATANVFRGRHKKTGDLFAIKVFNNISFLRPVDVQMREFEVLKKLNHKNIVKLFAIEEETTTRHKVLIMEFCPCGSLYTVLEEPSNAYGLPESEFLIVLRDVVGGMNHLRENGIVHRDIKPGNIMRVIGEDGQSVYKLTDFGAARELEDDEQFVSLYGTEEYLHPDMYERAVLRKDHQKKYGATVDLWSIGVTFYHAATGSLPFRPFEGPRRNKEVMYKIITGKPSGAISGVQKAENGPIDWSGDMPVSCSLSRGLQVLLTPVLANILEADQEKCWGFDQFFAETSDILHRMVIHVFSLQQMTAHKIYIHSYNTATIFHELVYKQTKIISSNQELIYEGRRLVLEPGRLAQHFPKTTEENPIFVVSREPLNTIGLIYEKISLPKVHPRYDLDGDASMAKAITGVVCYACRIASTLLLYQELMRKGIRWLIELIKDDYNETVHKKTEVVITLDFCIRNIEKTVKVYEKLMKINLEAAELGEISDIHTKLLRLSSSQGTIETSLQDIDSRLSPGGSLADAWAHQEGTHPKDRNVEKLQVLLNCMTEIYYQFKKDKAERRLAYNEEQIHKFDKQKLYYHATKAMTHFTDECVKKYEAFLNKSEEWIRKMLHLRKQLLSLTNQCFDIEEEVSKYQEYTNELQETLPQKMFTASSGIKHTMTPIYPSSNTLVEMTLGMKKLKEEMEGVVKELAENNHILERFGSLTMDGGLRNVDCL

[3] = target: Phosphatidylinositol 4-kinase alpha (Homo sapiens, UniProt P42356); test: Selectivity interaction (Kinase panel (KiNativ target engagement assay in Jurkat cells)) EUB0001635a PI4KA; assay type: cell-based; settings: Selectivity number of off-targets 0.0, Selectivity number of targets 233.0, Source Knowledge https://www.sciencedirect.com/science/article/pii/S2451945619300674?via%3Dihub, at 1 µM
Mu-type opioid receptor = Mu-type opioid receptor (Homo sapiens, UniProt P35372); test: Selectivity interaction (Opioid Mu GTPgS agonist assay ) EUB0000877a OPRM1
[4] = target: T2, Cyclin-dependent kinase-like 2 (Homo sapiens) (UniProt Q92772); settings: at 10 µM
T2 sequence (whole entry): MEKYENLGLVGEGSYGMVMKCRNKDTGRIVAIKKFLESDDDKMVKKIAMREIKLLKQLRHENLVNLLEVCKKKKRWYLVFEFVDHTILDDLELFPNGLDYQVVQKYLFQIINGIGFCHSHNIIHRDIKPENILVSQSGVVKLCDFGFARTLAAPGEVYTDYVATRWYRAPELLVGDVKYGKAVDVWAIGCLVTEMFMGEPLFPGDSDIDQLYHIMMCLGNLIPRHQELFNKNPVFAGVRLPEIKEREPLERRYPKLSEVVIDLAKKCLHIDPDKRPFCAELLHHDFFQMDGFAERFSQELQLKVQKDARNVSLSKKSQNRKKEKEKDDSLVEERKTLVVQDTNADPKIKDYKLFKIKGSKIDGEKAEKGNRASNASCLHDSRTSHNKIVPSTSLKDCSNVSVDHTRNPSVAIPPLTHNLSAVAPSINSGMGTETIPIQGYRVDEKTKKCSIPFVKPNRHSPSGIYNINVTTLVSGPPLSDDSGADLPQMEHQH

[5] = target: Tyrosine-protein kinase Yes (Homo sapiens) (UniProt P07947); settings: at 10 µM
[6] = target: T3, cGMP-dependent protein kinase 2 (Homo sapiens) (UniProt Q13237); test: Selectivity interaction (Kinase panel (Invitrogen)) EUB0000639a PRKG2; settings: at 200 nM
T3 sequence (whole entry): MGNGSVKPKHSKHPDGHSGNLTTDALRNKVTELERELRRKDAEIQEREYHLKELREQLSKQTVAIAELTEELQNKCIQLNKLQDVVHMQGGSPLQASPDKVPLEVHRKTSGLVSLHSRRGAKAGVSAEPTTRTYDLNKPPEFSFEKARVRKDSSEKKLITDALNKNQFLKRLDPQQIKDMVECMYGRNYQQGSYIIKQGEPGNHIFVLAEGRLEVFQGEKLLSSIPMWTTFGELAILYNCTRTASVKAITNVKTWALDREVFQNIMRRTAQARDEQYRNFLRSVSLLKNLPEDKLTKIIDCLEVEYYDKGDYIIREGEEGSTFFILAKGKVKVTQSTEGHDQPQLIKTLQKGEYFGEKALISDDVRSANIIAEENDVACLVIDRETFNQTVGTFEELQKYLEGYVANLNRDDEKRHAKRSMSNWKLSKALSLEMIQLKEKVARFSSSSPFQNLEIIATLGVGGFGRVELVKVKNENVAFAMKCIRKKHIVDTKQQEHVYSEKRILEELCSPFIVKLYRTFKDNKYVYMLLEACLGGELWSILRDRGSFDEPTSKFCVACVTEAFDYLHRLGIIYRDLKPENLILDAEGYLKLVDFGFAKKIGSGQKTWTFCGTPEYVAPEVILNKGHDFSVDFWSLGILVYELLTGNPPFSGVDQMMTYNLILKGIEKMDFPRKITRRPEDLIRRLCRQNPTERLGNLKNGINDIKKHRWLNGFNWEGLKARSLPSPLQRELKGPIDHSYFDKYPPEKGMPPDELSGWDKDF

[7] = target: T4, Aurora kinase A (Homo sapiens) (UniProt O14965); test: Selectivity interaction (ActivX KiNativ screen (kinase selectivity in THP-1 cell lysates)) EUB0000639a STK6; assay type: subcellular; settings: lysate, at 0.01 µM
T4 sequence (whole entry): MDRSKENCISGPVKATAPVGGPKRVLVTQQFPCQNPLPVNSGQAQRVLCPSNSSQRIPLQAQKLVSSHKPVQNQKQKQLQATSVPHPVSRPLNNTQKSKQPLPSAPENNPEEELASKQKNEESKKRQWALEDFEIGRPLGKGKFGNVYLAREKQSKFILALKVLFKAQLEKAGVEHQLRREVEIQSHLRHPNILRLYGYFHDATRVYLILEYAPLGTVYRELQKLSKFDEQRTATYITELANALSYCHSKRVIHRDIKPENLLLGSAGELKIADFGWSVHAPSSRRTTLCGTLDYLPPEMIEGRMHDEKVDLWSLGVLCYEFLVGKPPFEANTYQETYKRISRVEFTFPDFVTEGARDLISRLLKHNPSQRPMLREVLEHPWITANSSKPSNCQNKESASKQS

[8] = target: Tyrosine-protein kinase ABL1 (Homo sapiens, UniProt P00519); test: Selectivity interaction (ActivX KiNativ screen (kinase selectivity in THP-1 cell lysates)) EUB0000639a ABL1; assay type: subcellular; settings: lysate, at 1 µM
Sequence of Tyrosine-protein kinase ABL1 (P00519 whole entry): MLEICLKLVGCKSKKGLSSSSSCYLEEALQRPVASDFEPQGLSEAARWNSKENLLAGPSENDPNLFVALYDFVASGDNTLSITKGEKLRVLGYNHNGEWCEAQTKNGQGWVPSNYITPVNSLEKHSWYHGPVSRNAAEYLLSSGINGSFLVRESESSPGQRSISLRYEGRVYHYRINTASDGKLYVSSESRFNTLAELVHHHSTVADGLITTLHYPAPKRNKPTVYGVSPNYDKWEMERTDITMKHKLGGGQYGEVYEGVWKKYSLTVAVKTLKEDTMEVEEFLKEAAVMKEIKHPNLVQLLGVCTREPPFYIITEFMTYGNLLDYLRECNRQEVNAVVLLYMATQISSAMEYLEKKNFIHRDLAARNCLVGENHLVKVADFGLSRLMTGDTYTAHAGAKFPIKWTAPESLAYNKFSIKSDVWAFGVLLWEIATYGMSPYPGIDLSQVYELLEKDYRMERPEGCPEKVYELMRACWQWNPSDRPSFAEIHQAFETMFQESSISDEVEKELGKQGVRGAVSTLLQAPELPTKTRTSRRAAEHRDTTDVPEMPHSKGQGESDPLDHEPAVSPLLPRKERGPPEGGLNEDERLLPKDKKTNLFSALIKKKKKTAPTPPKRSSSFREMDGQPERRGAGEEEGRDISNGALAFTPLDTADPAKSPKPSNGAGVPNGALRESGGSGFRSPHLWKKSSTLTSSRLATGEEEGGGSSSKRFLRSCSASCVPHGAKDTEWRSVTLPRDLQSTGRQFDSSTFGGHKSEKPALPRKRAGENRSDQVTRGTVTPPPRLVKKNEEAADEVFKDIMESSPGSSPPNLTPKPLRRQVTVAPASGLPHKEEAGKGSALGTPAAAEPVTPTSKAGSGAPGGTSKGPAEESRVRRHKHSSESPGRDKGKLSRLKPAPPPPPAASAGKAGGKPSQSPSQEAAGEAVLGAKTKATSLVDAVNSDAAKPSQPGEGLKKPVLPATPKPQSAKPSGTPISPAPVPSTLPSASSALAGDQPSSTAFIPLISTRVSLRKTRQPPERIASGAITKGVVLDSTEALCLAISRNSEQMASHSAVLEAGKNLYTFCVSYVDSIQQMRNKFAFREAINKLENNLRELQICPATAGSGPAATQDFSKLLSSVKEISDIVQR

Sequence of Phosphatidylinositol 4-kinase alpha (P42356 whole entry, looked up): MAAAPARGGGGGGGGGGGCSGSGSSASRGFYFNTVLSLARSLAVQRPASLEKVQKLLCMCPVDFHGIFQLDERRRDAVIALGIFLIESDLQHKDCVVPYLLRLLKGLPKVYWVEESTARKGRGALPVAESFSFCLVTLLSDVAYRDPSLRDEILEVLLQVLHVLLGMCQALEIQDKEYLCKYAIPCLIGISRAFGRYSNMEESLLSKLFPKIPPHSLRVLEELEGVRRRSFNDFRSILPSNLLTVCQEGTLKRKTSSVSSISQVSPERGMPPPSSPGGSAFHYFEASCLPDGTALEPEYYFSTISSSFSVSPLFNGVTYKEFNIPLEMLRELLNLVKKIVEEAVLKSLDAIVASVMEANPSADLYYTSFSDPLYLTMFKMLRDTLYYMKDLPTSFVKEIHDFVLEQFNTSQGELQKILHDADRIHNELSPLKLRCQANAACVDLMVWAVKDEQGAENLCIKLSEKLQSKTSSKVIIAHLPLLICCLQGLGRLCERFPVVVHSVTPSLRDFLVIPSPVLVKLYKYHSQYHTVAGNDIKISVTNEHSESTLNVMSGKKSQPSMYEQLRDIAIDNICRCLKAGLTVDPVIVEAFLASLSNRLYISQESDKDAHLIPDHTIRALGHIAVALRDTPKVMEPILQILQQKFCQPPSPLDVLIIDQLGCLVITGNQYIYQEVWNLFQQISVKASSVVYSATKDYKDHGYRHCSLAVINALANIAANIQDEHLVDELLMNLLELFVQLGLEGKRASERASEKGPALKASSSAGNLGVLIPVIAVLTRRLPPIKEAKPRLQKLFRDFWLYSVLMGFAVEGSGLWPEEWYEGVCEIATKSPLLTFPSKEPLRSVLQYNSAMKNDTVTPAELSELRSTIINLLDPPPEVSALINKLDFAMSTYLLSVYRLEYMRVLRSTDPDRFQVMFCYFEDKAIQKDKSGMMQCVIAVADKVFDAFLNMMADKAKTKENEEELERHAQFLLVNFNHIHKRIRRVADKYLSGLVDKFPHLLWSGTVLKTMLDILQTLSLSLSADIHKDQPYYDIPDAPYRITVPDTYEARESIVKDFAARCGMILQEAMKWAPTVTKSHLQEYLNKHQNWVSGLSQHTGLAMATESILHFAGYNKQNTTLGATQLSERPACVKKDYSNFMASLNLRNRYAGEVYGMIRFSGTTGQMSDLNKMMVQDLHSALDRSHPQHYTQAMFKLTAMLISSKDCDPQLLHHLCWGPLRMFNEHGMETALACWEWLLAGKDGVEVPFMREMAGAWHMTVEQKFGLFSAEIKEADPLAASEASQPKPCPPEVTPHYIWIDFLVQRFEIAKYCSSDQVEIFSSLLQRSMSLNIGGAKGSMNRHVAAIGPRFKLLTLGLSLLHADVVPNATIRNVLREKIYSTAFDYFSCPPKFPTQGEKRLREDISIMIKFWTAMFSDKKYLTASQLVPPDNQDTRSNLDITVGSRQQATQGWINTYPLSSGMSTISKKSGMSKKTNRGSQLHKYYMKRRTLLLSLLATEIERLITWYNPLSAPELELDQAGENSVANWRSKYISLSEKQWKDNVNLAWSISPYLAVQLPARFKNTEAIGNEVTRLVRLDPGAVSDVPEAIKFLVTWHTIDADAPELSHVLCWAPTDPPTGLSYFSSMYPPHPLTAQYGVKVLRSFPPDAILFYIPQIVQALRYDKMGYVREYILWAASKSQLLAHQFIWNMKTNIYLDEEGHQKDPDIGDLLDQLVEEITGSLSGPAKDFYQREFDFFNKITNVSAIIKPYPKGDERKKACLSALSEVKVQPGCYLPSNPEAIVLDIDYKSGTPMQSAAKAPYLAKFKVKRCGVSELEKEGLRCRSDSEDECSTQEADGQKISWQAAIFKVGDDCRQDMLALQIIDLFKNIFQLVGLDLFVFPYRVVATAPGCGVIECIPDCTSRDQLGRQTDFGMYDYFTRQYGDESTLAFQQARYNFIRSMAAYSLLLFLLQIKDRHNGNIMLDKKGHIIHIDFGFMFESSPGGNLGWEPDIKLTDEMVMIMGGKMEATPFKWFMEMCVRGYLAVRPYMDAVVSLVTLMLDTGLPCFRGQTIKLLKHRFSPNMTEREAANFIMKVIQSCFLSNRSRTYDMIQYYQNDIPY
Sequence of Protein kinase C delta type (Homo sapiens) (Q05655 whole entry, looked up): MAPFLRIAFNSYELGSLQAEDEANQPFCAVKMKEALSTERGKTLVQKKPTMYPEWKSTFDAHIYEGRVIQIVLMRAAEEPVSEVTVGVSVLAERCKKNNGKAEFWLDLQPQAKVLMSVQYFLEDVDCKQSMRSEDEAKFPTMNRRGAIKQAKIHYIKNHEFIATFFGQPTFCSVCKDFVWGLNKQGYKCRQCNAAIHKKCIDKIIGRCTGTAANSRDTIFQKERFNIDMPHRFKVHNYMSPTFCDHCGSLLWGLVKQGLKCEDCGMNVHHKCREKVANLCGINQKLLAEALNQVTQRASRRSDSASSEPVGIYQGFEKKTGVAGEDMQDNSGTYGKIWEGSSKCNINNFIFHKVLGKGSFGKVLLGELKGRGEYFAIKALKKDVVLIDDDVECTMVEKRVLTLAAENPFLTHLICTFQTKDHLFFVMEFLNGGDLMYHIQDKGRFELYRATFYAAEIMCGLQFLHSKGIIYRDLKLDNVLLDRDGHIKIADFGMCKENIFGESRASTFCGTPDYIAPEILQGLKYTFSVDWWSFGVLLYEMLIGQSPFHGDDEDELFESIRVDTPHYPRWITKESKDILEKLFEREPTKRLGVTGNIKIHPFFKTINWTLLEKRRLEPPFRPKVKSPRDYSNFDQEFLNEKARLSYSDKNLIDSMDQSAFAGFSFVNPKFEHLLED
Sequence of Tyrosine-protein kinase Yes (Homo sapiens) (P07947 2-543 limits assumed): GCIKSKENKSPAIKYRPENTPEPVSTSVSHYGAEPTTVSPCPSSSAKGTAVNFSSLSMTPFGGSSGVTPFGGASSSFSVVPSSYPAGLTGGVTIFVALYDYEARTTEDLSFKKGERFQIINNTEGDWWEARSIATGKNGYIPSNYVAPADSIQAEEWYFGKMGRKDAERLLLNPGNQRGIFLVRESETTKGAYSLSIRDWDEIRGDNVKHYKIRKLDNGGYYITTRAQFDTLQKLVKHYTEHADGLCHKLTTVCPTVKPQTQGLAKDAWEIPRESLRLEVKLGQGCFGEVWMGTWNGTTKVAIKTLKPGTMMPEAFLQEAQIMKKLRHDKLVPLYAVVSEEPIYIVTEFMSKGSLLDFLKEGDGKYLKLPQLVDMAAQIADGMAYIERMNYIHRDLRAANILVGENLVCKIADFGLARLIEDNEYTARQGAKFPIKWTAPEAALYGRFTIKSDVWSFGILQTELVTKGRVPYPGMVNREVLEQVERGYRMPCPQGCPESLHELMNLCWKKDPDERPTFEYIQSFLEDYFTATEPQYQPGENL
Sequence of Mu-type opioid receptor (P35372 whole entry): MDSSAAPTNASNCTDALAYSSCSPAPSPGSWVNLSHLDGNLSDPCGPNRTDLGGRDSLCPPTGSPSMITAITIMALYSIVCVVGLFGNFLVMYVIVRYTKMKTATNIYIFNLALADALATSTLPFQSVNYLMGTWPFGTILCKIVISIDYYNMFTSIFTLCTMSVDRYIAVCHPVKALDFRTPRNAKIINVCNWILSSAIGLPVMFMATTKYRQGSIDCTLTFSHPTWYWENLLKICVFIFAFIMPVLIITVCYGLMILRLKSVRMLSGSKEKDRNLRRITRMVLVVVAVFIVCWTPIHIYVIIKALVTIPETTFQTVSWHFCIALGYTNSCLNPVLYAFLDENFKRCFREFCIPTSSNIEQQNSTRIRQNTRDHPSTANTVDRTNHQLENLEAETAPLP

Question: Which % of control [1] does the source give for `CCC(=O)N1CCN(c2ccc(-n3c(=O)ccc4cnc5ccc(-c6cnc7ccccc7c6)cc5c43)cc2C(F)(F)F)CC1` here?
Answer: The % of control was 82%.

Question: `CN(C)CCOc1ccc(-c2nc(-c3ccncc3)c(-c3ccc4c(c3)CC/C4=N\O)[nH]2)cc1` was tested. Which % of control [2] did it give?
Answer: Its % of control is 84%.

Question: For `C=CC(=O)Nc1ccc(C(=O)Nc2[nH]nc3c2CN(C(=O)N[C@H](CN(C)C)c2ccccc2)C3(C)C)cc1`, which % of engagement [3] is on record?
Answer: The % of engagement was 5.7%.

Question: For `CCC(=O)N1CC[C@H](Nc2ncnc3c2CN(c2cnc(OC)c(C(F)(F)F)c2)CC3)C1` [LENIOLISIB], which IC50 (Mu-type opioid receptor) is on record?
Answer: Its IC50 is over 30 µM.

Question: Which results are given for `Cc1cc([C@@H](C)Nc2ccccc2C(=O)O)c2nc(N3CCOCC3)cc(=O)n2c1` [AZD-6482]?
Answer: % of control [4]: 91%; % of control [5]: 100%

Question: For `CC[C@@H]1[C@H](F)C(=O)N[C@@H]1COc1nccc2cc(C(N)=O)c(OC)cc12` [ZIMLOVISERTIB], which % of inhibition [6] is on record?
Answer: The % of inhibition was 10.5%.

Question: What about the % of inhibition [7] of the same compound?
Answer: The % of inhibition was 4.9%.

Question: What about the % of inhibition [8] of the same compound?
Answer: The % of inhibition was -13.2%.
